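Growth conditions: 96-well plates. Treatment: test compound, 48 hours, 5 concentrations. Analysis: linear interpolation between bracketing concentrations; unreached endpoints set to highest concentration. GI50: concentration for 50% inhibition of growth. TGI: concentration producing complete growth inhibition.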
How the values were obtained:
Experiment in all cases: growth of human tumour cells (NCI), 48 h
SK-MEL-2 melanoma = test system: SK-MEL-2 melanoma
RPMI-8226 leukemia = test system: RPMI-8226 leukemia
OVCAR-8 ovarian = test system: OVCAR-8 ovarian
SNB-19 CNS = test system: SNB-19 CNS
HT29 colon = test system: HT29 colon
MALME-3M melanoma = test system: MALME-3M melanoma
HCT-116 colon = test system: HCT-116 colon
CAKI-1 renal = test system: CAKI-1 renal
KM12 colon = test system: KM12 colon
OVCAR-5 ovarian = test system: OVCAR-5 ovarian
PC-3 prostate = test system: PC-3 prostate
HS 578T breast = test system: HS 578T breast

## CN(C)C(=S)Nc1nnc(NC23CC4CC(CC(C4)C2)C3)s1
SK-MEL-2 melanoma
  TGI: 44.7 µM
RPMI-8226 leukemia
  TGI: 51.1 µM
OVCAR-8 ovarian
  TGI: > 100 µM
SNB-19 CNS
  TGI: 41.2 µM
HT29 colon
  TGI: 19.2 µM
MALME-3M melanoma
  TGI: 53.3 µM
HCT-116 colon
  TGI: 33 µM
CAKI-1 renal
  TGI: 68.8 µM
KM12 colon
  TGI: 46 µM

## CN(C)c1cccc(-c2cc(=O)c3ccccc3[nH]2)c1
RPMI-8226 leukemia
  TGI: > 100 µM
OVCAR-8 ovarian
  TGI: > 100 µM
SNB-19 CNS
  TGI: > 100 µM
HT29 colon
  TGI: > 100 µM
MALME-3M melanoma
  TGI: > 100 µM
HCT-116 colon
  GI50: 58.6 µM
  TGI: > 100 µM
KM12 colon
  TGI: > 100 µM

## Nn1c(CNc2ccc(-c3nnc(Nc4ccc(Cl)cc4)n3N)cc2)nnc1Nc1ccc(Cl)cc1
SK-MEL-2 melanoma
  TGI: > 100 µM
RPMI-8226 leukemia
  TGI: > 100 µM
SNB-19 CNS
  TGI: > 100 µM
HT29 colon
  TGI: > 100 µM
OVCAR-5 ovarian
  TGI: > 100 µM
MALME-3M melanoma
  TGI: > 100 µM
HCT-116 colon
  TGI: > 100 µM
PC-3 prostate
  TGI: > 100 µM
CAKI-1 renal
  TGI: > 100 µM
KM12 colon
  TGI: > 100 µM

## CSCCC(NC(=O)C(Cc1ccccc1)NC(=O)CNC(=O)CNC(=O)C(N)Cc1ccc(O)cc1)C(=O)O (stereo unspecified)
SK-MEL-2 melanoma
  TGI: > 100 µM
OVCAR-8 ovarian
  TGI: > 100 µM
SNB-19 CNS
  TGI: > 100 µM
HT29 colon
  TGI: > 100 µM
OVCAR-5 ovarian
  TGI: > 100 µM
MALME-3M melanoma
  TGI: > 100 µM
HCT-116 colon
  TGI: > 100 µM
CAKI-1 renal
  TGI: > 100 µM
KM12 colon
  TGI: > 100 µM

## Cn1c(-c2ccccc2)cc(-c2ccc3c(c2)OCO3)c1-c1cccs1
SK-MEL-2 melanoma
  TGI: > 100 µM
RPMI-8226 leukemia
  TGI: > 100 µM
OVCAR-8 ovarian
  TGI: > 100 µM
SNB-19 CNS
  TGI: > 100 µM
HT29 colon
  TGI: > 100 µM
OVCAR-5 ovarian
  TGI: > 100 µM
HCT-116 colon
  TGI: > 100 µM
PC-3 prostate
  TGI: > 100 µM
KM12 colon
  TGI: > 100 µM
HS 578T breast
  TGI: > 100 µM

## O=C(ON=c1c2ccccc2ccc2ccccc12)c1cc([N+](=O)[O-])cc([N+](=O)[O-])c1
SK-MEL-2 melanoma
  TGI: > 100 µM
RPMI-8226 leukemia
  TGI: > 100 µM
OVCAR-8 ovarian
  TGI: > 100 µM
SNB-19 CNS
  TGI: > 100 µM
HT29 colon
  TGI: > 100 µM
OVCAR-5 ovarian
  TGI: > 100 µM
MALME-3M melanoma
  TGI: 77.4 µM
HCT-116 colon
  TGI: > 100 µM
PC-3 prostate
  TGI: > 100 µM
KM12 colon
  TGI: > 100 µM
HS 578T breast
  TGI: > 100 µM

## CC1=NN(c2nc(N)nc(CS(C)(=O)=O)n2)C(C)(C)C1
SK-MEL-2 melanoma
  TGI: > 100 µM
RPMI-8226 leukemia
  TGI: > 100 µM
OVCAR-8 ovarian
  TGI: > 100 µM
SNB-19 CNS
  TGI: > 100 µM
HT29 colon
  TGI: > 100 µM
HCT-116 colon
  TGI: > 100 µM
PC-3 prostate
  TGI: > 100 µM
CAKI-1 renal
  TGI: > 100 µM
KM12 colon
  TGI: > 100 µM
HS 578T breast
  TGI: > 100 µM

## COC(=O)N1CC[C@@H]2CCC=C(c3cccc4c3OCO4)[C@@H]21
SK-MEL-2 melanoma
  TGI: > 100 µM
OVCAR-8 ovarian
  TGI: > 100 µM
SNB-19 CNS
  TGI: > 100 µM
HT29 colon
  TGI: > 100 µM
OVCAR-5 ovarian
  TGI: > 100 µM
MALME-3M melanoma
  TGI: > 100 µM
HCT-116 colon
  TGI: > 100 µM
PC-3 prostate
  TGI: > 100 µM
CAKI-1 renal
  TGI: > 100 µM
KM12 colon
  TGI: > 100 µM
HS 578T breast
  TGI: > 100 µM

## C#CCNC(=O)CCC(N)C(=O)O (stereo unspecified)
SK-MEL-2 melanoma
  TGI: > 100 µM
RPMI-8226 leukemia
  TGI: > 100 µM
OVCAR-8 ovarian
  TGI: > 100 µM
SNB-19 CNS
  TGI: > 100 µM
HT29 colon
  TGI: > 100 µM
OVCAR-5 ovarian
  TGI: > 100 µM
MALME-3M melanoma
  TGI: > 100 µM
HCT-116 colon
  TGI: > 100 µM
CAKI-1 renal
  TGI: > 100 µM
KM12 colon
  TGI: > 100 µM

## Cc1cccc2c1Oc1cc(Cl)ccc1C2NC(=O)CCN1CCCCC1 (stereo unspecified)
RPMI-8226 leukemia
  TGI: 63 µM
OVCAR-8 ovarian
  TGI: 30.2 µM
SNB-19 CNS
  TGI: 33 µM
HT29 colon
  TGI: 27.1 µM
OVCAR-5 ovarian
  TGI: 31.9 µM
HCT-116 colon
  TGI: 32.1 µM
PC-3 prostate
  TGI: 30.5 µM
KM12 colon
  TGI: 30.8 µM

## OC1CN(OC/C=C/c2ccccc2)CC(O)C1O (stereo unspecified)
SK-MEL-2 melanoma
  TGI: > 100 µM
RPMI-8226 leukemia
  TGI: > 100 µM
OVCAR-8 ovarian
  TGI: > 100 µM
SNB-19 CNS
  TGI: > 100 µM
HT29 colon
  TGI: > 100 µM
OVCAR-5 ovarian
  TGI: > 100 µM
MALME-3M melanoma
  TGI: > 100 µM
HCT-116 colon
  TGI: > 100 µM
CAKI-1 renal
  TGI: > 100 µM
KM12 colon
  TGI: > 100 µM

## CSC1=N/C(=C\c2cccs2)C(=O)N1CN1CCOCC1
SK-MEL-2 melanoma
  TGI: > 100 µM
RPMI-8226 leukemia
  TGI: > 100 µM
OVCAR-8 ovarian
  TGI: > 100 µM
SNB-19 CNS
  TGI: > 100 µM
HT29 colon
  TGI: > 100 µM
OVCAR-5 ovarian
  TGI: > 100 µM
MALME-3M melanoma
  TGI: > 100 µM
HCT-116 colon
  TGI: > 100 µM
PC-3 prostate
  TGI: > 100 µM
KM12 colon
  TGI: > 100 µM
HS 578T breast
  TGI: > 100 µM

## C/C(Cl)=N\OC(=O)Nc1ccc([N+](=O)[O-])cc1
SK-MEL-2 melanoma
  TGI: 32.5 µM
OVCAR-8 ovarian
  TGI: 32.2 µM
SNB-19 CNS
  TGI: 33.1 µM
HT29 colon
  TGI: 38.7 µM
OVCAR-5 ovarian
  TGI: 30.8 µM
MALME-3M melanoma
  TGI: 7.95 µM
HCT-116 colon
  TGI: 22.2 µM
PC-3 prostate
  TGI: 29.9 µM
CAKI-1 renal
  TGI: 9.79 µM
KM12 colon
  TGI: 36.2 µM
HS 578T breast
  TGI: 72.5 µM

## Clc1cc2nc(C3CCCO3)[nH]c2cc1Cl (stereo unspecified)
SK-MEL-2 melanoma
  TGI: > 100 µM
RPMI-8226 leukemia
  TGI: > 100 µM
OVCAR-8 ovarian
  TGI: > 100 µM
SNB-19 CNS
  TGI: > 100 µM
HT29 colon
  TGI: > 100 µM
OVCAR-5 ovarian
  TGI: > 100 µM
MALME-3M melanoma
  TGI: > 100 µM
HCT-116 colon
  TGI: > 100 µM
PC-3 prostate
  TGI: > 100 µM
KM12 colon
  TGI: > 100 µM
HS 578T breast
  TGI: > 100 µM

## COc1ccc2c(c1)/C(=C(\C(Cl)=C(\Cl)N1CCCCC1)[N+](=O)[O-])N2
OVCAR-8 ovarian
  TGI: > 100 µM
SNB-19 CNS
  TGI: > 100 µM
HT29 colon
  TGI: > 100 µM
OVCAR-5 ovarian
  TGI: > 100 µM
MALME-3M melanoma
  TGI: > 100 µM
HCT-116 colon
  TGI: > 100 µM
PC-3 prostate
  TGI: > 100 µM
CAKI-1 renal
  TGI: > 100 µM
KM12 colon
  TGI: > 100 µM
HS 578T breast
  TGI: > 100 µM

## CCCOc1ccc(/C(Cl)=C(\C=O)c2ccc(OC)c(OC)c2)cc1OCCC
SK-MEL-2 melanoma
  TGI: 32 µM
RPMI-8226 leukemia
  TGI: > 100 µM
OVCAR-8 ovarian
  TGI: > 100 µM
SNB-19 CNS
  TGI: > 100 µM
HT29 colon
  TGI: 18.5 µM
OVCAR-5 ovarian
  TGI: > 100 µM
MALME-3M melanoma
  TGI: 38.8 µM
HCT-116 colon
  TGI: 10.8 µM
CAKI-1 renal
  TGI: > 100 µM
KM12 colon
  TGI: 34.5 µM

## O=C1/C(=C/c2ccc(O)cc2)NC(=S)N1CN1CCCCC1
SK-MEL-2 melanoma
  TGI: > 100 µM
RPMI-8226 leukemia
  TGI: > 100 µM
OVCAR-8 ovarian
  TGI: > 100 µM
SNB-19 CNS
  TGI: > 100 µM
HT29 colon
  TGI: > 100 µM
OVCAR-5 ovarian
  TGI: > 100 µM
MALME-3M melanoma
  TGI: > 100 µM
HCT-116 colon
  TGI: > 100 µM
PC-3 prostate
  TGI: > 100 µM
KM12 colon
  TGI: > 100 µM
HS 578T breast
  TGI: > 100 µM

## NCCCNCCSSCc1ccccc1CSSCCNCCCN
SK-MEL-2 melanoma
  TGI: > 100 µM
RPMI-8226 leukemia
  TGI: > 100 µM
OVCAR-8 ovarian
  TGI: > 100 µM
SNB-19 CNS
  TGI: > 100 µM
HT29 colon
  TGI: 27.4 µM
OVCAR-5 ovarian
  TGI: > 100 µM
MALME-3M melanoma
  TGI: > 100 µM
CAKI-1 renal
  TGI: > 100 µM
KM12 colon
  TGI: > 100 µM

## COc1ccc2nc(-c3ccc(OC(=O)N(C)C)cc3)cn2c1
SK-MEL-2 melanoma
  TGI: > 100 µM
OVCAR-8 ovarian
  TGI: > 100 µM
SNB-19 CNS
  TGI: > 100 µM
HT29 colon
  TGI: > 100 µM
OVCAR-5 ovarian
  TGI: > 100 µM
MALME-3M melanoma
  TGI: > 100 µM
HCT-116 colon
  TGI: > 100 µM
PC-3 prostate
  TGI: > 100 µM
CAKI-1 renal
  TGI: > 100 µM
KM12 colon
  TGI: > 100 µM
HS 578T breast
  TGI: > 100 µM

## COC1/C=C\C=C(/C)C(=O)NC2=CC(=O)C=C(C2=O)C(OC)C(C)CC(OC)C(OC)C(C)/C=C(/C)C1OC(N)=O (stereo unspecified)
SK-MEL-2 melanoma
  TGI: 20.5 µM
RPMI-8226 leukemia
  TGI: 12.1 µM
OVCAR-8 ovarian
  TGI: 5.62 µM
SNB-19 CNS
  TGI: 30.7 µM
HT29 colon
  TGI: 12.1 µM
OVCAR-5 ovarian
  TGI: 28.8 µM
MALME-3M melanoma
  TGI: 0.826 µM
HCT-116 colon
  TGI: 10.3 µM
CAKI-1 renal
  TGI: 26.3 µM
KM12 colon
  TGI: 20.1 µM

## CN1CCc2c(sc3nc(Nc4ccccc4)n(N)c(=O)c23)C1
SK-MEL-2 melanoma
  TGI: > 100 µM
RPMI-8226 leukemia
  TGI: > 100 µM
OVCAR-8 ovarian
  TGI: > 100 µM
SNB-19 CNS
  TGI: > 100 µM
HT29 colon
  TGI: > 100 µM
OVCAR-5 ovarian
  TGI: > 100 µM
HCT-116 colon
  TGI: > 100 µM
PC-3 prostate
  TGI: > 100 µM
CAKI-1 renal
  TGI: > 100 µM
KM12 colon
  TGI: > 100 µM
HS 578T breast
  TGI: > 100 µM

Reference: PubChem BioAssay (NCI)
